Measurements from ChEMBL document CHEMBL1201862, “PubChem BioAssay data set” (2004).
Each block holds one molecule with its values, some of them ahead of it. Calls of active or inactive are those of the source.

Tests used:
[1] = molecular target: T1, Heat shock factor protein 1 (Mus musculus, UniProt P38532); assay: inhibition of MG132-induced HSE-luciferase signal, confirmation, cell-based, NIH3T3, luminescence, dose retest (AID 2382); assay type: functional;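 note: NIH3T3 fibroblasts with HSF1-driven luciferase reporter stressed by proteasome inhibitor MG132; luminescence from HSF1-driven luciferase expression after 8 hours of MG132 stress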
T1 sequence (P38532 whole entry): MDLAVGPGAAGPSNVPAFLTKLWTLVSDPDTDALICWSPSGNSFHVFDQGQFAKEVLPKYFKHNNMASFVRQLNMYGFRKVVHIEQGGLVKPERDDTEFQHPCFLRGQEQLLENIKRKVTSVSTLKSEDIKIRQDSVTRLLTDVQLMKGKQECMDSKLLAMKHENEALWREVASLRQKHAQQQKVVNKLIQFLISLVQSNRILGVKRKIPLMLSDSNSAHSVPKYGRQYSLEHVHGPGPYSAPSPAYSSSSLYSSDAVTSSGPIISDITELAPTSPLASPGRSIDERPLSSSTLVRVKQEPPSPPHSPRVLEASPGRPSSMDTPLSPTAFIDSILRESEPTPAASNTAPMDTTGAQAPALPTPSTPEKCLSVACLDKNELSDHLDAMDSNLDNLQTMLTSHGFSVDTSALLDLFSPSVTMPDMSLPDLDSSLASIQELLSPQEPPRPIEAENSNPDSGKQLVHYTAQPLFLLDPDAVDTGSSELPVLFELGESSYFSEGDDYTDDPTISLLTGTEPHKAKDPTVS

H9c2 = assay: cells; assay type: functional, cell-based; details: Rattus norvegicus, H9c2, Myocardium;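 note: confirmatory concentration-response retest of ultra-high-throughput screening hits for modulation of myocardial damage; cell death induced by hydrogen peroxide oxidative stress; compound pretreatment for 60 min then peroxide exposure for 2 h; potency is for protecting the cells against peroxide damage rather than for killing them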
[2] = inhibitors of intracellular T. cruzi replication, confirmation, NIH3T3 host cells, beta-gal luminescence (AID 2044); assay type: functional, cell-based;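 note: intracellular parasites grown in NIH/3T3 mouse fibroblasts as host cells; luminescent beta-galactosidase reporter signal from transgenic T. cruzi replicating inside host cells; inhibitors lower the luminescence signal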
[3] = cytotoxicity toward NIH3T3 fibroblasts, dose response, counter-screen, cell-based, ATP luminescence, mouse fibroblasts (AID 2010); assay type: functional;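 note: cells exposed to compound for about 90 hours before reading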
[4] = molecular target: T2, Ubiquitin-conjugating enzyme E2 N (Homo sapiens, UniProt P61088); assay type: functional;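 note: Dose-response confirmation in a TR-FRET assay detecting UBC13-driven polyubiquitin chain formation, inhibition measured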
T2 sequence (P61088 whole entry): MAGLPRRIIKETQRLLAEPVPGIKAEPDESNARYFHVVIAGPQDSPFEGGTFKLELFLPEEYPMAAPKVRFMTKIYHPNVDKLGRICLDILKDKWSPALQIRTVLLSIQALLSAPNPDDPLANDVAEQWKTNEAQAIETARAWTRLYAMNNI

Protein skinhead-1 = molecular target: T3, Protein skinhead-1 (Caenorhabditis elegans, UniProt P34707); assay type: functional
T3 sequence (P34707 whole entry): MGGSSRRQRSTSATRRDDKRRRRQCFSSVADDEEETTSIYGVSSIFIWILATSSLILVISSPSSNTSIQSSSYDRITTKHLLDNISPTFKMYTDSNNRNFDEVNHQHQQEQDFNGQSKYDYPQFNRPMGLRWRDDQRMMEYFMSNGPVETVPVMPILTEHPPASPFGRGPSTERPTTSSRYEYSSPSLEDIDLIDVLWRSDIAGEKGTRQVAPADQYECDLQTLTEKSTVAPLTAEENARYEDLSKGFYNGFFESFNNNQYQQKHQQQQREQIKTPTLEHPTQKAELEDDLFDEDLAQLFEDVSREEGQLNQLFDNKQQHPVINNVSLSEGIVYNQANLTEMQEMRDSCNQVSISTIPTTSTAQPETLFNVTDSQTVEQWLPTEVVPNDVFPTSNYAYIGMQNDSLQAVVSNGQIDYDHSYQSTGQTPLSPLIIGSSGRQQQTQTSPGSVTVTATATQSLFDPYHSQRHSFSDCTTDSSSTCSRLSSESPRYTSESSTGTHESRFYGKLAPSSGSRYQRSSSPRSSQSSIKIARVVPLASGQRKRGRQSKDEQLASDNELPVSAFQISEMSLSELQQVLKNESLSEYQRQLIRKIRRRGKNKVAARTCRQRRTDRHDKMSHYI

[5] = Luminescence Cell-Based Dose Confirmation HTS to Identify Inhibitors of Platelet Dense Granule Release. [Related pubchem assays: 1663 (Primary HTS), 1678 (Summary of Project)]; assay type: functional
[6] = molecular target: Luciferin 4-monooxygenase (Photinus pyralis, UniProt P08659); assay: firefly luciferase enzyme inhibitors, dose response, biochemical, luminescence (AID 1891)
Luciferin 4-monooxygenase, sequence (P08659 whole entry): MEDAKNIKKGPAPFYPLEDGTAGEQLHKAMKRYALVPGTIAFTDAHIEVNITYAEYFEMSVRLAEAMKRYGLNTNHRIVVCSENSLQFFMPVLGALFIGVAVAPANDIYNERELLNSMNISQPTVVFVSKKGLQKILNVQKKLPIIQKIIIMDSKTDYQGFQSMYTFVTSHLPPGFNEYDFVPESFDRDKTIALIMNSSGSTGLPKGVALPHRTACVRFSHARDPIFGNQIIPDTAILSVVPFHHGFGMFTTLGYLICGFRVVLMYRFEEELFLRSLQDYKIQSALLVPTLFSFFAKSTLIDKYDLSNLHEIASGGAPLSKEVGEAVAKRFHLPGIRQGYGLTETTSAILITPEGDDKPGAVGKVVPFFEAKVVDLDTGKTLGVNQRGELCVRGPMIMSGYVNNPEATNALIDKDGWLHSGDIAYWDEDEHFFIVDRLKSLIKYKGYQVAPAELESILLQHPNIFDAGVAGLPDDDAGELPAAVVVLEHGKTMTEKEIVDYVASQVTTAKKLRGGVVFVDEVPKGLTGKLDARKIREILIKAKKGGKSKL

INS1 = assay: beta cell apoptosis inhibitors, cytokine rescue, dose response, luminescence, retest (AID 449756); assay type: functional, cell-based; details: Rattus norvegicus;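 note: cell death triggered by IL-1 beta plus TNF-alpha plus IFN-gamma mixture; protective hits raise ATP signal compared with cytokine alone wells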
[7] = growth suppression of PTEN-null colon cells, dose response, cell-based, HCT116 PTEN knockout (AID 1047); assay type: functional;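 note: HCT116 colon tumor cells with PTEN knocked out; cells exposed to compound for 60 hours before readout; potency for loss of cell viability measured by luminescence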
[8] = molecular target: T4, Rac GTPase-activating protein 1 (Homo sapiens, UniProt Q9H0H5); assay: MgcRacGAP GTPase-activating activity inhibitors, confirmation, biochemical, ADP Hunter fluorescence, primary and confirmatory (AID 624330); assay type: functional
T4 sequence (Q9H0H5 whole entry): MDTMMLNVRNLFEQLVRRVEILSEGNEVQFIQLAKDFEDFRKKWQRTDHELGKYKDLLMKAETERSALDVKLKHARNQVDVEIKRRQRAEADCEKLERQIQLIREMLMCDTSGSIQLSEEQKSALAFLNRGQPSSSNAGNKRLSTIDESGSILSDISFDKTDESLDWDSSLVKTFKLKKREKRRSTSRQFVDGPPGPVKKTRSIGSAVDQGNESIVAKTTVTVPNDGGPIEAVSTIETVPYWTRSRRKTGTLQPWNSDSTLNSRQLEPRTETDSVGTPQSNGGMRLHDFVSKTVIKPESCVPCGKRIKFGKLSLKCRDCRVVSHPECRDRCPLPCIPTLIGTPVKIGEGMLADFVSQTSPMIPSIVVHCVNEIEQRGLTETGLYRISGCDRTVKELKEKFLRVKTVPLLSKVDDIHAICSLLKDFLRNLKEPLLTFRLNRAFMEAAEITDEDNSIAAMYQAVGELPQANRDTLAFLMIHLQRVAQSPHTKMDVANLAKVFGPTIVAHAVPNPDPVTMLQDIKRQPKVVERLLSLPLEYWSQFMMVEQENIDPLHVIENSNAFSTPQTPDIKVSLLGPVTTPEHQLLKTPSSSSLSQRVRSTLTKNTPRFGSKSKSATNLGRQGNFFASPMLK

Paired box protein Pax-8 = Paired box protein Pax-8 (Homo sapiens, UniProt Q06710); assay: inhibitors of PAX8-driven TPO luciferase reporter, dose response, RMG-I cells, cherry-pick (AID 687027); assay type: functional, cell-based;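 note: luciferase reporter driven by Pax8 target thyroperoxidase promoter measured by SteadyGlo luminescence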
Paired box protein Pax-8, sequence (Q06710 whole entry): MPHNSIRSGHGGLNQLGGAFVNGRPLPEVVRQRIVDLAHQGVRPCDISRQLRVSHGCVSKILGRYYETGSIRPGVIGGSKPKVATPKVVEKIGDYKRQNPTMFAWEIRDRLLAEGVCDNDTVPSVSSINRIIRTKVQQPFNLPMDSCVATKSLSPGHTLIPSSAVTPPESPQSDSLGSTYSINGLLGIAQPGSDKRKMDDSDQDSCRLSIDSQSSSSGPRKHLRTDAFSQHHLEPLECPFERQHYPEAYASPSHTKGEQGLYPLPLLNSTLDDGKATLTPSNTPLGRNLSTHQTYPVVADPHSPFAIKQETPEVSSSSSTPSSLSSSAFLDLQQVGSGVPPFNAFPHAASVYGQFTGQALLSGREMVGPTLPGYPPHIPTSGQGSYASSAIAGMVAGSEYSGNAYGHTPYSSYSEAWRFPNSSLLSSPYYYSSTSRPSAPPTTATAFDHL

SMILES: NS(=O)(=O)c1ccc(CCNC(=O)c2ccc(C#CC3(O)CCCCC3)cc2)cc1
- EC50 [1]: 7.97 µM (active)
- IC50 (H9c2): > 79 µM (inactive)

SMILES: CCN(CC)CCNC(=O)c1cc2c(s1)-c1ccccc1SC2
- EC50 [2]: 2.27 µM (active)
- EC50 [3]: 7.38 µM (active)
- IC50 [4]: > 20 µM (inactive)

- IC50 (Protein skinhead-1): > 100 µM (inactive)
SMILES: COCCn1c(CCC(=O)O)nc2c1c(=O)[nH]c(=O)n2CC(C)C

- IC50 [4]: > 20 µM (inactive)
SMILES: CCOC(=O)C1=C(c2ccccc2)O/C(=C(/C(=O)OC)C(F)(F)F)S1

SMILES: Cc1ccc(-c2csc(N3CCC[C@@H]3C(=O)NCCn3c(-c4ccncc4)nc4ccccc43)n2)cc1
- IC50 (H9c2): > 79 µM (inactive)

SMILES: O=C(NCC(=O)N(Cc1cccs1)C(C(=O)NC1CCCC1)c1ccco1)c1cccs1 (stereo unspecified)
- IC50 (H9c2): > 79 µM (inactive)

- IC50 (Protein skinhead-1): > 100 µM (inactive)
SMILES: COc1cc2[nH]c(=S)n(CCN3CCCCC3C)c(=O)c2cc1OC (stereo unspecified)

SMILES: CCOc1ccc(CCNC(=O)c2oc3c(c2C)-c2n[nH]cc2CC3)cc1OCC
- EC50 [5]: > 112 µM (not active)
- EC50 [6]: > 112 µM (not active)

- IC50 (Protein skinhead-1): > 100 µM (inactive)
SMILES: Cc1c(C2=CCN(S(=O)(=O)c3ccc(Cl)cc3)CC2)c2ccccc2n1C

SMILES: CC(C)CCCCCCN=C(S)Nc1ccc(S(=O)(=O)N2CCOCC2)cc1
- AC50 (INS1): 7.7 µM (active)
- EC50 [7]: 77 µM (active)

- IC50 (Protein skinhead-1): > 100 µM (inactive)
SMILES: COc1ccc(NS(=O)(=O)c2cccc(-c3nnc(-c4ccccc4)o3)c2)cc1

- IC50 (Protein skinhead-1): > 100 µM (inactive)
SMILES: COc1ccc(C(O)CNc2ccc(C)cc2)cc1 (stereo unspecified)

- IC50 (Protein skinhead-1): > 100 µM (inactive)
SMILES: CCCc1cc(C(=O)Nc2ccc(Cl)cn2)cs1

SMILES: CCC1CCCN1Cn1cnc2c3cc(Cl)ccc3nc-2c1O (stereo unspecified)
- EC50 [5]: 48.3 µM (active)
- EC50 [6]: > 112 µM (not active)

SMILES: O=c1c2ccccc2oc2nc(-c3ccco3)n(Cc3ccccc3)c(=O)c12
- IC50 (H9c2): > 79 µM (inactive)

- IC50 [4]: > 20 µM (inactive)
SMILES: COc1ccc(CCNC(=O)Cn2c(=O)n(-c3ccc(C)c(F)c3)c(=O)c3sccc32)cc1OC

- IC50 (Protein skinhead-1): > 100 µM (inactive)
SMILES: CCOC(=O)C1CCN(C(=O)c2ccc3c(c2)S(=O)(=O)c2ccccc2C3=O)CC1

- IC50 [4]: > 20 µM (inactive)
SMILES: COc1ccc(C(=O)Nc2ccc3oc(-c4cccc(F)c4)nc3c2)cc1OC

SMILES: O=C(CN(c1cccc([N+](=O)[O-])c1)S(=O)(=O)c1ccccc1)NCc1ccccc1
- EC50 [5]: 46.7 µM (active)
- EC50 [6]: > 112 µM (not active)

SMILES: COCCCN(C(=O)Cc1ccc(Cl)c(Cl)c1)c1c(N)n(Cc2ccccc2)c(=O)[nH]c1=O
- EC50 [5]: > 112 µM (not active)
- EC50 [6]: > 112 µM (not active)

- IC50 [4]: > 20 µM (inactive)
SMILES: CCN(CC)CCNC(=O)c1cc2c(=O)n(CC)c3ccccc3c2s1

- IC50 [4]: > 20 µM (inactive)
SMILES: CCC[C@@H](CN1CCC[C@H]1CN1C(N)=NC[C@@H]1Cc1ccccc1)N1C[C@@H](Cc2ccccc2)N(CCc2ccc(Cl)c(Cl)c2)C1=N

SMILES: COc1cc(-c2cc(NC(C)=O)c3ncc(-c4ccccc4)n3c2)cc(OC)c1OC
- IC50 (H9c2): > 79 µM (inactive)

- IC50 [8]: 74.3 µM (active)
- IC50 (Protein skinhead-1): > 100 µM (inactive)
SMILES: Nn1c(=S)[nH]c2sc3c(c2c1=O)CCCC3

- IC50 (Protein skinhead-1): > 100 µM (inactive)
SMILES: O=C1CC(NNC(=O)c2ccc(Br)cc2)C(=O)N1 (stereo unspecified)

SMILES: Cc1nonc1C(=O)N/N=C/c1cccc(O)c1
- EC50 [5]: 4.56 µM (active)
- EC50 [6]: 13.5 µM (active)

SMILES: O=C(Nc1ccccc1C(=O)N/N=C/c1ccco1)c1ccc(F)cc1
- EC50 [5]: 10.4 µM (active)
- EC50 [6]: 0.295 µM (active)

- AC50 (Paired box protein Pax-8): 17.1 µM (active)
SMILES: C[C@H]1CCCCO[C@H](CN(C)C(=O)Nc2ccc(C(F)(F)F)cc2)[C@@H](C)CN([C@@H](C)CO)C(=O)c2cc(NC(=O)c3ccncc3)ccc2O1

SMILES: CC/C(=N\NC(=O)Nc1ccccc1)c1ccccc1
- EC50 [5]: > 112 µM (not active)
- EC50 [6]: > 112 µM (not active)
